{"source": "patent US10864207B2", "about": "“Method of treating endothelial dysfunction” (Celagenex Research (India) Pvt. Ltd., priority 2019, dated 2020)", "key": {"eNOS gene": {"system": "eNOS gene", "assay": "eNOS gene expression by semi-quantitative RT-PCR in H9C2 cells", "assay_type": "cell-based, rat", "conditions": "for eNOS expression in % / Regulation in Terms of Folds eNOS: normalized to β-Actin; for Regulation in Terms of Folds eNOS: control = 1.00", "experimental": "The test substances were evaluated for their gene expression activity in H9C2 (rat cardiomyocytes) and the concentration of test substances (G1, G2 and G3) taken for gene expression studies was 500 μg/ml. […] [Hunter C. Champion, et al. “PNAS, 2005; 102:5:1661-1666.]\neNOS levels were estimated for the test substance by gene expression method, where the level of expression of eNOS expression on […] Cardiomyocytes (H9C2) was determined with respect to untreated H9C2 cells.\n(§1) The H9C2 cells treated with test samples were subjected to cell lysis by treating with Tri-extraction reagent. Chloroform was added to isolate the total RNA from the sample and subjected for centrifugation. Out of the three distinct layers observed, upper layer was collected in fresh tube and equal volume of isopropanol was added and incubated at −20° C. for 10 mins. After the incubation followed by centrifugation, appropriate volume of ethanol was added to resuspend the pellet. After incubation and centrifugation, the pellet was air dried and appropriate volume of TAE buffer was added. The isolated total RNA was further used for cDNA synthesis. cDNA was synthesized by priming with oligo-dT primers followed by reverse transcriptase enzyme treatment according to manufacturer's protocol (Thermoscienctific). The cDNA thus synthesized was taken up for PCR for the amplification of eNOS and GAPDH (internal control).\n(§2) The mRNA expression levels of eNOS were determined using semi-quantitative reverse transcriptase-polymerase chain reaction (RT-PCR). 50 μl of the reaction mixture was subjected to PCR for amplification of eNOS. cDNAs using specifically designed primers procured from Eurofins, India and GAPDH/β-Actin (House keeping genes) was co-amplified with each reaction as an internal control.\n(§3) eNOS: 95° C. for 5 min followed by 35 cycles of denaturation at 95° C. for 30 seconds, annealing temperature for 30 seconds and extension at 72° C. for 45 seconds. This was followed by final extension at 72° C. for 10 min. The primers used in this example for I strand synthesis and IInd strand synthesis are disclosed in priority Indian Patent Application No. 201921000093, filed Jan. 2, 2019, which is incorporated herein by reference."}, "PGI2 gene": {"system": "PGI2 gene", "assay": "PGI2 gene expression by semi-quantitative RT-PCR in H9C2 cells", "assay_type": "cell-based, rat", "conditions": "for PGI2 expression in % / Regulation in Terms of Folds PGI2: normalized to GAPDH; for Regulation in Terms of Folds PGI2: control = 1.00", "experimental": "[…] […] [Hunter C. Champion et al. PNAS, 2005; 102:5:1661-1666].\nPGI2 were estimated for the test substance by gene expression method, where the level of expression of PGI2 expression on Rat Cardiomyocytes (H9C2) was determined with respect to untreated H9C2 cells.\nas §1, with “treated with drug were subjected” for “treated with test samples were subjected”, “Chloroform was added, to isolate” for “Chloroform was added to isolate”, “according to manufacturers protocol (Thermoscienctific).” for “according to manufacturer's protocol (Thermoscienctific).”, “amplification of PGI2 and GAPDH/β-Actin” for “amplification of eNOS and GAPDH”, “PGI2 and GAPDH/β-Actin (internal control).” for “eNOS and GAPDH (internal control).”\nas §2, with “PGI2” for “eNOS”, “PGI2.” for “eNOS.”\nas §3, with “PGI2:” for “eNOS:”, “Tm” for “temperature”"}}, "data": [{"smiles": "C[n+]1cccc(C(N)=O)c1", "note": "[Group G1, N^1-methyl nicotinamide chloride]", "values": [{"measurement": "eNOS expression in %", "setting": "eNOS gene; 500 μg/ml", "result": 21, "unit": "%"}, {"measurement": "Regulation in Terms of Folds eNOS", "setting": "eNOS gene; 500 μg/ml", "result": 1.21, "unit": "fold"}, {"measurement": "eNOS gene over-expression as compared to the control", "setting": "eNOS gene; at tested doses (500 μg/ml)", "result": 0.21, "unit": "folds"}, {"measurement": "PGI2 gene expression increase as compared to the control", "setting": "PGI2 gene; 500 μg/ml", "result": 0.14, "unit": "folds"}, {"measurement": "PGI2 expression in %", "setting": "PGI2 gene; 500 μg/ml", "result": 14, "unit": "%"}, {"measurement": "Regulation in Terms of Folds PGI2", "setting": "PGI2 gene; 500 μg/ml", "result": 1.14, "unit": "fold"}]}, {"smiles": "O=[N+]([O-])OCC(CO[N+](=O)[O-])O[N+](=O)[O-]", "note": "[Nitroglycerin, reference compound]", "values": [{"measurement": "eNOS expression in %", "setting": "eNOS gene; 250 μg/ml", "result": 56, "unit": "%"}, {"measurement": "Regulation in Terms of Folds eNOS", "setting": "eNOS gene; 250 μg/ml", "result": 1.56, "unit": "fold"}, {"measurement": "eNOS gene up-regulation over control", "setting": "eNOS gene; standard sample (250 μg/ml)", "result": 0.56, "unit": "fold"}, {"measurement": "PGI2 expression in %", "setting": "PGI2 gene; 250 μg/ml", "result": 29, "unit": "%"}, {"measurement": "Regulation in Terms of Folds PGI2", "setting": "PGI2 gene; 250 μg/ml", "result": 1.29, "unit": "fold"}]}]}
